Like-named read-outs stand apart in the source and are kept apart here. Some results are limits rather than exact numbers.

This note sets out measurements from US7879795B2, “Enhancement of tigecycline potency using efflux pump inhibitors” (Mpex Pharmaceuticals, Inc., priority 2004, dated 2011).

For one data set, the system named is Klebsiella pneumonia 73. Nature of the data set: Antibiotic MIC with fixed concentration of compound 21, Klebsiella pneumonia 73. In kind it is cell-based. How it is done:
(§1) To further characterize the clinical potential of tigecycline/EPI combinations, the microbiological activity of tigecycline in combination with compound 21 was investigated using clinical isolates of P. aeruginosa and other gram-negative bacteria. In several experiments, described below, the impact of a fixed concentration of compound 21 (2.5 μg/ml) on susceptibility to tigecycline was determined.
(§2) The impact of compound 21 on the activity of tigecycline against representative members of Enterobacteriacaea was also tested.

Data set [1] has as its system Enterobacter aerogenes 19. Nature of the data set: Antibiotic MIC with fixed concentration of compound 21, Enterobacter aerogenes 19. In kind it is cell-based.
The subject of the next data set is Klebsiella pneumonia 79. The data set is described as follows: Antibiotic MIC with fixed concentration of compound 21, Klebsiella pneumonia 79. In kind it is cell-based. The protocol: as §1, §2
The next data set concerns Enterobacter cloacae 25. Nature of the data set: Antibiotic MIC with fixed concentration of compound 21, Enterobacter cloacae 25. In kind it is cell-based.
A further data set has as its system Citrobacter freundii 13. Nature of the data set: Antibiotic MIC with fixed concentration of compound 21, Citrobacter freundii 13. In kind it is cell-based. The protocol:
as §1, §2

A short description of data set [2]: Tissue levels after 2-hour IV infusion in rats. It counts as in vivo, rat. To be noted: for concentration at 6 h: 4 h after end of 2-hour IV infusion; for concentration at 6 h / concentration at 2 h: 10 mg/kg; for 2 h/4 h Ratio: Table 7, 2 h and 6 h; for concentration at 2 h: end of 2-hour IV infusion. The protocol:
Levels of EPIs in various tissues were evaluated after 2-hour IV infusion in rats. The rats received 10 mg/kg IV infusion through FVC. Animals were divided into 2 groups: group 1 was sacrificed immediately after the end of infusion and group 2, 2 h or 4 h after the end of infusion. Tissues from each animal were collected, homogenized and compounds were extracted. Tissues were mixed with saline at 1:1 ratio (v/w) in 12×75 mm polypropylene round bottom tubes. The mixtures were homogenized with a Polytron homogenizer (on ice, 3×10-15 seconds with 30 seconds intervals at the setting of 7). 50 μl of homogenized tissue were immediately transferred to an Eppendorf tube and 2-volumes of 4% TCA were added. After vortexing for 30 seconds, the tubes were centrifuged in a microfuge at top speed (13.2 k rpm) for 5 minutes. The supernatant was collected, and 45 μl of the supernatant was transferred to a glass LC/MS/MS vial (Kimble, 11 mm, 1.5 ml) for analysis, which allowed determination of tissue levels of EPIs at the end of the infusion and 2 h or 4 h later.

Data set [3] in a line: Rat serum pharmacokinetics after 2-hour IV infusion. In kind it is in vivo. The protocol:
Rat serum pharmacokinetics of compounds 1, 3, 7, and 21 was evaluated after 2-hour IV infusion of 1 mg/ml EPI solution in 0.9% saline. Total infused dose was 10 mg/kg. FIG. 12 depicts the serum concentrations as a function of time. A two-compartment model was used to fit the data and calculate PK parameters.

The next data set has as its system PAM1723. The settings on record: for stability in rat serum: summary of Table 4, in words. How it is done: Stability in rat and human serum was also evaluated using a bioassay. 320 μg/ml of the test compound was treated with 50% serum for 4 hours.
Bioassays as described in Example 62 and Example 65 were used to evaluate the stability of various compounds in serum and rabbit kidney homogenates.

For data set [4], the system named is strain PAM1723 of P. aeruginosa. In kind it is in vitro ADME. How it is done: Stability of compounds was also evaluated using a bioassay. The test compound at 320 μg/ml was treated with rabbit kidney supernatant for 0, 0.5, 1 and 2 hours.

As to `CC[C@H]1OC(=O)[C@H](C)[C@@H](O[C@H]2C[C@@](C)(OC)[C@@H](O)[C@H](C)O2)[C@H](C)[C@@H](O[C@@H]2O[C@H](C)C[C@H](N(C)C)[C@H]2O)[C@](C)(O)C[C@@H](C)CN(C)[C@H](C)[C@@H](O)[C@]1(C)O` [Azithromycin, reference compound], the Azi (MIC) worked out at 16 µg/mL with Klebsiella pneumonia 73 (azithromycin alone); 32 µg/mL in [1] (azithromycin alone); 64 µg/mL with Klebsiella pneumonia 79 (azithromycin alone); 16 µg/mL with Enterobacter cloacae 25 (azithromycin alone); 8 µg/mL in the data set with Citrobacter freundii 13 (azithromycin alone).

As a reminder, the clearance is the rate of elimination divided by the concentration. Regarding `NCCC[C@H](N)C(=O)N[C@H](CCc1ccccc1)C(=O)Nc1ccc2ncccc2c1` [Compound 7, 2-(S),5-Diamino-pentanoic acid [3-phenyl-1-(R)-(quinolin-6-ylcarbamoyl)-propyl]-amide], in data set [2] (rat kidney), the concentration at 6 h was determined as 960 ng/mL, the “2 h/4 h Ratio” value was 57.37 and the concentration at 2 h is 55400 ng/mL. Moreover, in data set [2] (rat liver), the concentration at 6 h is 270 ng/mL, the “2 h/4 h Ratio” value is on record as 29.85 and the concentration at 2 h turned out to be 7960 ng/mL. Moreover, in data set [2] (rat lung), the concentration at 6 h came out at 3170 ng/mL, the “2 h/4 h Ratio” value is on record as 4.11 and the concentration at 2 h was determined as 13000 ng/mL. Also, the “tissue levels and clearance from tissues after 2-hour IV infusion” value in data set [2] (rat, in words) was “cleared from tissues relatively fast”. In addition, the “serum PK profile after 2-hour IV infusion” value in data set [3] (10 mg/kg, in words) is recorded as “best serum PK profile”. Further, the clearance in data set [3] (serum, 2-hour IV infusion, total dose 10 mg/kg, two-compartment model) is 6.5 mL/min/kg.

For the molecule `NCCC[C@H](N)C(=O)N[C@@H](CCc1ccc(F)cc1)C(=O)Nc1cnc2ccccc2c1` [Compound 9, 2-(S),5-Diamino-pentanoic acid [3-(4-fluoro-phenyl)-1-(S)-(quinolin-3-ylcarbamoyl)-propyl]amide], the “stability in rat serum” value in the data set on PAM1723 is listed as “unstable in rat serum”.

With `CN(C(=O)[C@@H](CCc1ccccc1)NC(=O)[C@@H](N)CCCN)c1cnc2ccccc2c1` [Compound 18, 2-(S),5-Diamino-pentanoic acid [1-(R)-(methyl-quinolin-3-yl-carbamoyl)-3-phenyl-propyl]amide], the “stability in rat serum” value in the data set with PAM1723 is “unstable in rat serum”.

Turning to `NCCC[C@H](N)C(=O)N[C@H](CCc1ccccc1)C(=O)Nc1cnc2ccccc2n1` [Compound 19, 2-(S),5-Diamino-pentanoic acid [3-phenyl-1-(R)-(quinoxalin-2-ylcarbamoyl)-propyl]-amide], the “stability in rat serum” value with PAM1723 was “unstable in rat serum”.

With `NCCC[C@H](N)C(=O)N[C@H](CCc1ccccc1)C(=O)Nc1cccc(-c2ccccc2)c1` [Compound 26], the “EPI MPC8 after incubation (h) with rabbit kidney supernatant at 37° C.” value in data set [4] (0 h) is 80 µg/mL; in [4] (0.5 h), over 80 µg/mL; in data set [4] (1 h), over 80 µg/mL; in data set [4] (2 h), over 80 µg/mL. Also, the “EPI MPC8, Saline (2 hours)” value in [4] (saline control of rabbit kidney supernatant bioassay, 37° C.) came out at 2.5 µg/mL. Besides, the “EPI MPC8 after 4 hours at 37° C., Frosen Human serum” value in the data set on PAM1723 (Table 4, human serum) was 2.5 µg/mL. Besides, the “EPI MPC8 after 4 hours at 37° C., Frozen Rat serum” value in the data set on PAM1723 (Table 4, rat serum) was determined as 2.5 µg/mL. For the same molecule, in the data set with PAM1723 (Table 4, saline), the “EPI MPC8 after 4 hours at 37° C., Saline” value stood at 2.5 µg/mL.

Consider `NCCC[C@H](N)C(=O)N[C@H](CCc1ccccc1)C(=O)Nc1ccc2cccnc2c1` [Compound 28, 2-(S),5-Diamino-pentanoic acid [3-phenyl-1-(R)-(quinolin-7-ylcarbamoyl)-propyl]-amide], for which the “stability in rat serum” value in the data set on PAM1723 is “unstable in rat serum”.

For the molecule `NCCC[C@H](N)C(=O)N[C@H](CCc1ccccc1)C(=O)Nc1ncc(Cl)cc1Cl` [Compound 36, 2-(S),5-Diamino-pentanoic acid [1-(R)-(3,5-dichloro-pyridin-2-ylcarbamoyl)-3-phenyl-propyl]amide], the “stability in rat serum” value in the data set with PAM1723 is given as “unstable in rat serum”.

Consider `NCCC[C@H](N)C(=O)N[C@H](CCc1ccccc1)C(=O)Nc1cc2ccccc2nn1` [Compound 39, 2-(S),5-Diamino-pentanoic acid [1-(R)-(cinnolin-3-ylcarbamoyl)-3-phenyl-propyl]-amide], for which the “stability in rat serum” value with PAM1723 is “unstable in rat serum”.

As for `C[C@H]1COc2c(N3CCN(C)CC3)c(F)cc3c(=O)c(C(=O)O)cn1c23` [Levofloxacin, reference compound], the Levo (MIC) is 64 µg/mL in the data set on Klebsiella pneumonia 73 (levofloxacin alone); 128 µg/mL in [1] (levofloxacin alone); 64 µg/mL in the data set on Klebsiella pneumonia 79 (levofloxacin alone); 2 µg/mL with Enterobacter cloacae 25 (levofloxacin alone); 64 µg/mL with Citrobacter freundii 13 (levofloxacin alone).

Consider “L-phenylalanine-L-ornithine-α-naphtylamide [MC-207110, reference compound]”, for which the “EPI MPC8 after 4 hours at 37° C., Frozen Rat serum” value with PAM1723 (Table 3, 50% rat serum) is recorded as over 80.
